Data: PubChem BioAssay (NCI)
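Test compounds were applied to cells in 96-well plates for 48 hours at 5 doses. GI50 marks 50% less growth. TGI: concentration producing complete growth inhibition.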

Tests used:
Assay in all cases: DTP human tumour cell line panel, 48 h
OVCAR-4 ovarian = system: OVCAR-4 ovarian
NCI/ADR-RES ovarian = system: NCI/ADR-RES ovarian
SNB-19 CNS = system: SNB-19 CNS
SK-MEL-5 melanoma = system: SK-MEL-5 melanoma
PC-3 prostate = system: PC-3 prostate
SK-MEL-28 melanoma = system: SK-MEL-28 melanoma
MCF7 breast = system: MCF7 breast
NCI-H23 lung = system: NCI-H23 lung
MDA-MB-231 breast = system: MDA-MB-231 breast
MALME-3M melanoma = system: MALME-3M melanoma

Structure (SMILES)	GI50 (OVCAR-4 ovarian) [µM]	TGI (OVCAR-4 ovarian) [µM]	GI50 (NCI/ADR-RES ovarian) [µM]	TGI (NCI/ADR-RES ovarian) [µM]	GI50 (SNB-19 CNS) [µM]	TGI (SNB-19 CNS) [µM]	GI50 (SK-MEL-5 melanoma) [µM]	TGI (SK-MEL-5 melanoma) [µM]	GI50 (PC-3 prostate) [µM]	TGI (PC-3 prostate) [µM]	GI50 (SK-MEL-28 melanoma) [µM]	TGI (SK-MEL-28 melanoma) [µM]	GI50 (MCF7 breast) [µM]	TGI (MCF7 breast) [µM]	GI50 (NCI-H23 lung) [µM]	TGI (NCI-H23 lung) [µM]	GI50 (MDA-MB-231 breast) [µM]	TGI (MDA-MB-231 breast) [µM]	GI50 (MALME-3M melanoma) [µM]	TGI (MALME-3M melanoma) [µM]
CCNCCNc1cc(-c2ccc(F)cc2)c(C#N)c2nc3ccccc3n12	3.4	14.5	6.34	25.1	4.94	17.8	1.74	3.18	6.98	19.5	1.86	3.59	3.31	13.5	13.7	29	2.73	7.69	1.77	3.45
CC1OC(O)C(O)C(O)C1O (centres undefined)	–	> 100	–	> 100	–	> 100	–	> 100	–	> 100	–	> 100	–	> 100	–	> 100	–	> 100	–	> 100
COc1ccc(C(O)c2cc3c(N)c(C(=O)Nc4cccc(Br)c4)sc3nc2C)cc1 (centres undefined)	0.224	> 84.2	0.104	4.87	0.159	> 100	0.123	0.47	0.204	> 100	22.3	> 100	0.125	> 58.4	0.181	> 60.4	0.104	1.63	0.799	> 52.7
CC(C)C(N)(C(=O)O)c1ccccc1 (centres undefined)	–	> 100	–	> 100	–	> 100	–	> 100	–	> 100	–	> 100	–	> 100	–	> 100	–	> 100	–	> 100
CC(=O)/C(C)=N/N/C(N)=N\S(=O)(=O)c1cc(C(=O)Nc2ccccc2)c(Cl)cc1SCc1ccccc1	12.3	> 100	> 100	> 100	> 100	> 100	24	> 100	> 100	> 100	> 100	> 100	76.7	> 100	42.8	> 100	5.94	> 100	> 100	> 100
O=C(/C=C\c1ccnc2ccccc12)c1ccc([N+](=O)[O-])cc1	3.71	> 100	8.68	> 100	14.8	> 68.3	3.63	22.3	8.62	48.2	20.5	> 83.2	1.64	3.54	5.54	59.5	8.63	38.7	57.2	> 100
COc1ccc2c3c(c(OCCCN(C)C)nc2c1)-c1ccc(Cl)cc1C3=O	2.83	17.2	4.79	26	8.81	28.2	14.6	28.4	4.72	19.4	12.1	27	1.27	13	11	25.3	4.26	23.7	10.7	26.4
COc1ccc(NC(=O)c2cc(OC)c(OC)c(OC)c2)cc1O	15.3	> 100	1.13	> 100	4.73	> 100	1.43	48.6	2.52	> 100	28.1	> 100	2.58	> 100	5.32	> 100	6.79	> 100	29.4	> 100
Cn1ccnc1C(=O)/C=C/c1ccc(C(=O)Nc2nc3ccccc3[nH]2)cc1	1.12	> 25	4.95	> 25	9.75	> 25	18.4	> 25	3.78	> 25	> 25	> 25	0.9	> 25	3.34	> 25	3.05	13.1	> 25	> 25
Oc1ccc2ccccc2c1N=Nc1ccccc1	–	> 100	–	> 100	–	> 100	–	> 100	–	> 100	–	> 100	–	> 100	–	> 100	–	> 100	–	> 100
COc1ccc2c(c1)OC13Oc4cc(OC)ccc4C=C1CCCC3=C2	> 100	> 100	> 100	> 100	> 100	> 100	13.6	> 100	> 100	> 100	> 100	> 100	4.8	> 100	> 100	> 100	> 100	> 100	> 100	> 100
CC#CC(=O)N1CCC[C@H]1c1nc(-c2ccc(C(=O)Nc3ccccn3)cc2)c2c(N)nccn12	58	> 100	> 100	> 100	> 79.9	> 100	40.5	> 100	> 84.8	> 100	47.3	> 100	58	> 100	> 100	> 100	28.1	> 100	36.2	> 100
C[C@H]1[C@@H](OCC(CO[C@H]2O[C@@H]3O[C@@]4(C)CC[C@H]5[C@H](C)CC[C@@H]([C@H]2C)[C@@]35OO4)=NOCC(=O)O)OC2O[C@@]3(C)CC[C@H]4[C@H](C)CC[C@@H]1[C@@]24OO3 (some centres undefined)	0.0565	18.2	0.525	16.4	0.613	18.7	0.0288	14.9	< 0.01	13.5	0.756	20.6	0.212	17.6	< 0.0283	18.1	0.12	2.41	< 0.0245	–
